Laboratory results: the CheMixHub viscosity set

Test: xn = mol fraction of the nth substance listed

COC(=O)c1ccccc1 + CS(C)=O
303.15 K, 101 kPa
Conditions	viscosity [mPa·s]
x1 = 0.1946	1.757
x1 = 0.2734	1.752
x1 = 0.3608	1.751
x1 = 0.4584	1.751
x1 = 0.5683	1.723
x1 = 0.6931	1.682

C[N+](C)(C)C.[OH-] + CS(C)=O
viscosity [mPa·s], 100 kPa
Conditions	298.15 K	303.15 K	308.15 K	313.15 K
x1 = 0.0177	2.05	1.87	1.73	1.63
x1 = 0.0538	2.18	2.01	1.87	1.77
x1 = 0.091	2.24	2.07	1.94	1.86
x1 = 0.1294	2.34	2.18	2.06	1.98
x1 = 0.1691	2.44	2.3	2.18	2.1
x1 = 0.2101	2.55	2.42	2.3	2.23
x1 = 0.2314	2.61	2.48	2.36	2.3
x1 = 0.2961	2.76	2.64	2.54	2.48
x1 = 0.3645	2.9	2.81	2.71	2.65
x1 = 0.4366	3.04	2.94	2.86	2.81
x1 = 0.4868	3.12	3.03	2.95	2.91
x1 = 0.5388	3.18	3.1	3.02	2.98
x1 = 0.6206	3.25	3.17	3.09	3.07
x1 = 0.7071	3.26	3.2	3.12	3.1
x1 = 0.7677	3.23	3.18	3.1	3.06
x1 = 0.8307	3.15	3.12	3.05	3.02
x1 = 0.8963	3.03	3.02	2.94	2.9
x1 = 0.9647	2.86	2.84	2.76	2.71

O=C(O)CC(=O)O + C[N+](C)(C)CCO.[Cl-]
viscosity [mPa·s]
Conditions	293.15 K	293.2 K	298.15 K	303.15 K	303.2 K	308.15 K	313.15 K	313.2 K	318.15 K	323.15 K
100 kPa, x2 = 0.5	2016	–	1389	982.9	–	710.7	524.5	–	393.9	301.2
101 kPa, x2 = 0.5	1651	–	1084	679.6	–	486.4	372.5	–	286.5	207.2
101.3 kPa, x2 = 0.502	–	1600	–	–	1029	–	–	615	–	–

CCOC(=O)CCl + Cc1cc(C)cc(C)c1
viscosity [mPa·s], 101.3 kPa
Conditions	x1 = 0.1123	x1 = 0.2035	x1 = 0.2999	x1 = 0.4019	x1 = 0.4987	x1 = 0.5997	x1 = 0.6963	x1 = 0.7974	x1 = 0.8954
298.15 K	0.693	0.712	0.745	0.775	0.811	0.853	0.902	0.964	1.023
303.15 K	0.653	0.669	0.698	0.725	0.759	0.798	0.841	0.899	0.949
308.15 K	0.612	0.627	0.652	0.677	0.708	0.741	0.779	0.829	0.874
